Here are results for six compounds from PMC3489612, “Exploring flubendazole formulations for use in sheep. Pharmacokinetic evaluation of a cyclodextrin-based solution” (BMC Veterinary Research, 2012).

Values after ≈ are worked out from the molar mass of the structure shown.

A short description of data set [1]: In vitro aqueous solubility of BZD compounds with or without HPßCD (10%). The settings on record: for solubility at 2 weeks: 25 °C, thermodynamic from solid; for HPßCD-induced solubility increasing effect: pH 1.2, with versus without HPßCD (10%); for aqueous solubility: 25°C, n = 6, mean ± SD. As to the method: BZD solubilities were determined in aqueous solutions at pH values of 1.2 (HCl/KCl) and 7.4 (KH2PO4) with or without HPßCD (10%). An excess amount of ABZ, ABZSO, MBZ, OFZ or FLBZ was suspended in glass tubes containing 10 mL of each medium. The tubes were placed in a water bath at 25°C with a constant shaken rate of 100 strokes/min for two weeks (Yamato BT-31, Yamato Scientific Co., Japan). […] The supernatants were collected and filtered through a 0.2 μm filter (Whatman Inc., NJ, USA). After filtration, samples were analyzed for drug quantification by HPLC following the method described below.
Experimental and fortified samples of plasma and abomasal fluid were analyzed for FLBZ, R-FLBZ, H-FLBZ and the internal standard (OBZ) by HPLC following the method described by Moreno et al.. Briefly, 50 μL of sample were injected in a Shimadzu 10 A HPLC System (Kyoto, Japan), using an UV detector set at 292 nm, an autosampler and a controller (Shimadzu Class LC10, Kyoto, Japan). Elution from the stationary phase (Selectosil C18 column, 5 μm, 250 × 4.6 mm, Phenomenex®, CA, USA) has been carried out at a flow rate of 1.2 mL/min, using a mixture of acetonitrile:potassium phosphate buffer (25 mM, pH 5.3) (40:60) as a mobile phase, during 13 min at 30°C.

The subject of a further data set is parasite motility. The arrangement: method as in PMID 9421720. The settings on record: cited from earlier work.
Another data set concerns ß-tubulin. Also on record: method as in PMID 15463312. The settings on record: cited from earlier work.
The conditions of data set [2]: in vivo. As to the method: (§1) FLBZ-solution (2% w/v) was prepared by dissolution of 2 g of pure FLBZ and 10 g of HPßCD in 100 mL of dionized water (pH 1.2). The pH was adjusted using hydrochloric acid (25 mM). The formulation was shaken during 48 h (40°C) and then was filtrated through a 0.45 μm filter (Whatman, NJ, USA). The final FLBZ concentration was confirmed by HPLC (n = 4). The FLBZ suspension (2% w/v) was performed by addition of 2 g FLBZ pure standard in a suspension of CMC (0.5% w/v) prepared with deionized water (100 mL, pH = 6.0) under shaking (24 h). The FLBZ suspension was vigorously shaken before its administration to sheep.
(§2) Six (6) parasite-free Corriedale male sheep (average weight: 50.6 ± 6.0 kg) were used in this experiment. Animals were kept indoors with commercial balanced food and water ad libitum for two months prior and during the trial. Four (4) animals were surgically fitted with a permanent cannula in the pyloric region of the abomasum following an adaptation of the technique described by Komarek. A 6-week post-surgery recovery period was allowed before starting the pharmacokinetic trials. […]
(§3) Experimental and fortified samples of plasma and abomasal fluid were analyzed for FLBZ, R-FLBZ, H-FLBZ and the internal standard (OBZ) by HPLC following the method described by Moreno et al.. […]

Data set [3] in a line: Abomasal fluid pharmacokinetics after intraruminal (i.r.) administration of FLBZ formulations (Experiment 1). The following applies: sheep, after i.r. FLBZ administration as both formulations. The data set is classed as in vivo. How it is done:
as §1, §2, §3

Where [4] appears, read: aqueous solution (HCl/KCl) with 10% HPβCD, pH 1.2, aqueous with cosolvent or surfactant or cyclodextrin.
The mark [5] stands for this setting: aqueous solution (HCl/KCl) without HPβCD, pH 1.2, simulated gastric fluid.
Setting [6] is: aqueous solution (KH2PO4) with 10% HPβCD, pH 7.4, aqueous with cosolvent or surfactant or cyclodextrin.

As for `COC(=O)Nc1nc2cc(C(=O)c3ccc(F)cc3)ccc2[nH]1` [Flubendazole], the solubility at 2 weeks in data set [1] (setting [4]) is 2250 ± 552 µg/mL (≈ 7190 µM); in data set [1] (setting [5]), 29.6 ± 2.8 µg/mL (≈ 94.5 µM); in data set [1] (setting [6]), 164 ± 120 µg/mL (≈ 523 µM); in data set [1] (aqueous solution (KH2PO4) without HPβCD, pH 7.4, aqueous buffer), 5.8 ± 7 µg/mL (≈ 18.5 µM). Also, the “potency in parasite motility test” value with parasite motility was “high potency”. The “affinity binding for ß-tubulin” value with ß-tubulin is recorded as “high affinity binding”.
As to `Nc1nc2ccc(C(=O)c3ccc(F)cc3)cc2[nH]1` [H-FLBZ], the “time of detection in plasma (low concentrations)” value in data set [2] was in the range of 18 to 48 h.
As for `COC(=O)Nc1nc2ccc([S+]([O-])c3ccccc3)cc2[nH]1` (centres unmarked) [Oxfendazole, oxfendazole], the solubility at 2 weeks in data set [1] (setting [4]) was 1900 ± 606 µg/mL (≈ 6030 µM); in data set [1] (setting [5]) it was 420 ± 29.2 µg/mL (≈ 1330 µM); in data set [1] (setting [6]) it was 348 ± 46.8 µg/mL (≈ 1100 µM). Also, the “HPßCD-induced solubility increasing effect” value in data set [1] was found to be 35 fold.
Consider `COC(=O)Nc1nc2ccc(C(O)c3ccc(F)cc3)cc2[nH]1` (centres unmarked) [R-FLBZ, reduced flubendazole], for which the “time of detection in abomasal fluid post-treatment” value in data set [3] was “up to 96 h”.
With `CCCSc1ccc2nc(NC(=O)OC)[nH]c2c1` [Albendazole], the solubility at 2 weeks in data set [1] (pH 1.2, aqueous with cosolvent or surfactant or cyclodextrin) is 921 ± 347 µg/mL (≈ 3470 µM); in data set [1] (pH 1.2, simulated gastric fluid) it was 406 ± 53.4 µg/mL (≈ 1530 µM); in data set [1] (pH 7.4, aqueous buffer) it was 4.6 ± 1.3 µg/mL (≈ 17.3 µM); in data set [1] (pH 7.4, aqueous with cosolvent or surfactant or cyclodextrin) it was 43 ± 8.3 µg/mL (≈ 162 µM). The “HPßCD-induced solubility increasing effect” value in data set [1] was 1.3 fold.
For `CCC[S+]([O-])c1ccc2[nH]c(NC(=O)OC)nc2c1` (centres unmarked) [Albendazole sulphoxide, albendazole sulphoxide], the highest aqueous solubility in data set [1] (pH 1.2 (value of Table 1 with HPßCD)) was 6.6 ± 1.3 mg/mL. Further, the aqueous solubility in data set [1] (pH 1.2, with HPßCD (10%)) stood at 6637.7 ± 1370.2 µg/mL (≈ 23600 µM); in data set [1] (pH 1.2, without HPßCD), 3818.6 ± 202.1 µg/mL (≈ 13600 µM); in data set [1] (pH 7.4, with HPßCD (10%)) it was 871.9 ± 129.3 µg/mL (≈ 3100 µM); in data set [1] (pH 7.4, without HPßCD) it was 83.6 ± 7.6 µg/mL (≈ 297 µM). Besides, the “HPßCD-induced solubility increasing effect” value in data set [1] was 0.7 fold.

As usually defined, the solubility is the dissolved amount per volume that the medium holds. Read a high solubility as much dissolved substance. As usually defined, the aqueous solubility is how much of the substance goes into solution per volume. A low value points to a poorly soluble substance.
